# Laboratory results reported in patent US8952034B2, “Fused heterocyclic compounds as ion channel modulators” (Gilead Sciences, Inc., priority 2009, dated 2015).
# Target: wild-type human cardiac sodium channel, hNav1.5 (Homo sapiens, UniProt Q14524)
# Assay: Late INa screening assay (automated whole cell patch clamp, PatchXpress)
# Assay type: cell-based
# Details: not given
# Description: The late sodium current (Late INa) and peak sodium current (Peak INa) assays are performed on an automated electrophysiology platform, PatchXpress 7000A (MDS Analytical Technologies, Sunnyvale, Calif.), which uses the whole cell patch clamp technique to measure currents through the cell membrane of up to 16 cells at a time. The assay uses an HEK293 (human embryonic kidney) cell line heterologously expressing the wild-type human cardiac sodium channel, hNav1.5, purchased from Millipore (Billerica, Mass.). No beta subunits were coexpressed with the Na channel alpha subunit. Cells are maintained with standard tissue culture procedures and stable channel expression is maintained with 400 μg/ml Geneticin in the culture medium. […] Experiments are carried out at 24-27° C.
# For both the Late INa and Peak INa assays, series resistance compensation is set to 50% and whole-cell compensation is performed automatically. […] Currents through open sodium channels are automatically recorded and stored in the DataXpress2 database (MDS Analytical Technologies, Sunnyvale, Calif.). Analysis is performed using DataXpress2 analysis software and data are compiled in Excel.
# Compound stocks are routinely made in glass vials to 10 mM in dimethyl sulfoxide (DMSO). In some cases, when compounds are not soluble in DMSO, they are made in 100% ethanol. Stocks are sonicated as necessary. The extracellular solution for screening Late INa is composed of: 140 mM NaCl, 4 mM KCl, 1.8 mM CaCl2, 0.75 mM MgCl2, and 5 mM HEPES with pH adjusted to 7.4 using NaOH. The extracellular solution for screening Peak INa is composed of: 20 mM NaCl, 120 mM N-methyl-D glucamine, 4 mM KCl, 1.8 mM CaCl2, 0.75 mM MgCl2, and 5 mM HEPES with pH adjusted to 7.4 using HCl. The intracellular solution used to perfuse the inside of the cells for both the Late INa and Peak INa assays contains: 120 mM CsF, 20 mM CsCl, 5 mM EGTA, 5 mM HEPES and pH adjusted to 7.4 with CsOH. […] The 0Na extracellular solution used at the end of each experiment for the Late INa and Peak INa assays to measure baseline current contains: 140 mM N-methyl-D-glucamine; 4 mM KCl; 1.8 mM CaCl2; 0.75 mM MgCl2; 5 mM HEPES and pH was adjusted to 7.4 with HCl.
# For the Late INa assay, sodium channels are activated every 10 seconds (0.1 Hz) by depolarizing the cell membrane to −20 mV for 250 milliseconds (ms) from a holding potential of −120 mV. In response to a −20 mV voltage step, typical Nav1.5 sodium currents activate rapidly to a peak negative current and then inactivate nearly completely within […].
# All compounds are tested to determine their activity in blocking the late sodium current. Late INa current is generated by adding 10 μM Tefluthrin (pyrethroid) to the extracellular solution while recording Na currents For some experiments, 50 nM ATX II (sea anemone toxin), another late INa activator, was used to generate the late component. […] After establishing the whole cell recording configuration, late INa activators are added to each well 4 times over a 16-17 minute period so that the late component of the Na current reaches a stable value. […] Measurements are made at the end of exposure to the third compound addition and values are normalized to the current level when all Na^+ is removed from the extracellular solution after two additions of 0Na-ECF. Results are reported as percent block of late INa
# Chain of wild-type human cardiac sodium channel, hNav1.5 (Q14524 whole entry): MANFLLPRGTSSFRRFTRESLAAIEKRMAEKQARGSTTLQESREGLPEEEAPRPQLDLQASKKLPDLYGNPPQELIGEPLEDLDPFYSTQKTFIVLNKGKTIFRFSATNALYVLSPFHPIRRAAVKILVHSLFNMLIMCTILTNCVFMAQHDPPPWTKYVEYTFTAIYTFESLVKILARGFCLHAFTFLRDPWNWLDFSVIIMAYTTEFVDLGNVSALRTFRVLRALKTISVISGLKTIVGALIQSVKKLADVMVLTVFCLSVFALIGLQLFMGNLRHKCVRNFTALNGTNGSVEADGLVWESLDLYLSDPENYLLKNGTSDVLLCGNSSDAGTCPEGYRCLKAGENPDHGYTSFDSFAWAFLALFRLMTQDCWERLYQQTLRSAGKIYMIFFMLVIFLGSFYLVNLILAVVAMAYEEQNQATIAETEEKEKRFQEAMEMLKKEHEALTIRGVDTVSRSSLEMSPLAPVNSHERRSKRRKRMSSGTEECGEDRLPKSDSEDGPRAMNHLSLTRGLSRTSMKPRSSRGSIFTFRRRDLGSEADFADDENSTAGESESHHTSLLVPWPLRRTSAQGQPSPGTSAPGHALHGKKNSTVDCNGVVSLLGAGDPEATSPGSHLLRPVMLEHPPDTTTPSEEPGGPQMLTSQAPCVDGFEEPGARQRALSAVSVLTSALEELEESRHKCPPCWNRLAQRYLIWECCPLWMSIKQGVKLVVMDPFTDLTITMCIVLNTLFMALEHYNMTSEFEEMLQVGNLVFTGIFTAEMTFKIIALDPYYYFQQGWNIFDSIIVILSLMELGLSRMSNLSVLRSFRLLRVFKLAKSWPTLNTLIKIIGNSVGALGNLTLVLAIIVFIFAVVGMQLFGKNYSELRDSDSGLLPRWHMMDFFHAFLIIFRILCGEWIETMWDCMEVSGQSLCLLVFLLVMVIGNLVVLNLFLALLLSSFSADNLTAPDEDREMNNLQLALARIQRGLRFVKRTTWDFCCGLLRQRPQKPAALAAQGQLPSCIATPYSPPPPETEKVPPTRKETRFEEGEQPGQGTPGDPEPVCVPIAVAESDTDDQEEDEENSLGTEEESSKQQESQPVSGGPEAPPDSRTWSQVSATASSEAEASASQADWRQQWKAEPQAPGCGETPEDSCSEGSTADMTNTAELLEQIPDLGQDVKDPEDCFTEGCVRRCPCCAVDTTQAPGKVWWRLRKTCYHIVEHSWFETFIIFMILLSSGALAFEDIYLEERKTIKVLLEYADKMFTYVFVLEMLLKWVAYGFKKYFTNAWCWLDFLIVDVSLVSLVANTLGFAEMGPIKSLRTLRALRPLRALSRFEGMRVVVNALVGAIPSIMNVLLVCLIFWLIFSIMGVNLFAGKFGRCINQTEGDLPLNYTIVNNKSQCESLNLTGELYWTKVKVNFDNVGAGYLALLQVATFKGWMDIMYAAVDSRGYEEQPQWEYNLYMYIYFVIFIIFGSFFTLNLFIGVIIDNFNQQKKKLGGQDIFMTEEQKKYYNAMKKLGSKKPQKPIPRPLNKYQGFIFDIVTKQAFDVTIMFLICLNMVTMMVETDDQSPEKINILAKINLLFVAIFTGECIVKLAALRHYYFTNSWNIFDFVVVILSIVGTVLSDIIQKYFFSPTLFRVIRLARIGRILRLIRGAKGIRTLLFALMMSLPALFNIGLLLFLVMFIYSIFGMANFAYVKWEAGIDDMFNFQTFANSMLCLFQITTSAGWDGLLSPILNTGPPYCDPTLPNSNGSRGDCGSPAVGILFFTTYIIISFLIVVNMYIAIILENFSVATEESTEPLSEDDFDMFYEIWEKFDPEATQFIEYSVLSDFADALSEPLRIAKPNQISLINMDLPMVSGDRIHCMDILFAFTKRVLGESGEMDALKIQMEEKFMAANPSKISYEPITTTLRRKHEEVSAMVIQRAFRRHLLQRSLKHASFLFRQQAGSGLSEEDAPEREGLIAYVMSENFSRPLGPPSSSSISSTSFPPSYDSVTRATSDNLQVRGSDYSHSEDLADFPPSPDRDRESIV
row,SMILES,LateINa_1 uM (percent block of late INa) [%]
1,FC(F)(F)Oc1ccc(-c2ccc3nnc(Oc4cccc(C(F)(F)F)c4)n3c2)cc1 [BHN-258],80.1084

# Same assay, conditions: compound at 1 μM; HEK293 cells expressing hNav1.5; late INa generated with 10 μM Tefluthrin (or 50 nM ATX II); read-out: LateINa_1 uM (percent block of late INa)
row,SMILES,inhibition at 1 µM [%]
1,"Fc1ccc(-c2cc(COC(F)(F)c3nnc4ccc(-c5ccc(OC(F)(F)F)cc5)cn34)no2)cc1 [BHN-318, 3-(difluoro{[5-(4-fluorophenyl)-1,2-oxazol-3-yl]methoxy}methyl)-6-[4-(trifluoromethoxy)phenyl][1,2,4]triazolo[4,3-a]pyridine]",28.9
2,"COc1cc(-c2ccc(OC(F)(F)F)cc2)cn2c(C(F)F)nnc12 [BHN-126, 3-(difluoromethyl)-8-methoxy-6-[4-(trifluoromethoxy)phenyl][1,2,4]triazolo[4,3-a]pyridine]",26.9
3,"FC(F)(F)Oc1ccc(-c2ccc3nnc(C(F)(F)OCCC(c4ccccc4)c4ccccc4)n3c2)cc1 [BHN-303, 3-[(3,3-diphenylpropoxy)(difluoro)methyl]-6-[4-(trifluoromethoxy)phenyl][1,2,4]triazolo[4,3-a]pyridine]",51
4,"CCOC(=O)c1ccc(-c2nnc3ccc(-c4ccc(OC(F)(F)F)cc4)cn23)cc1 [BHN-86, ethyl 4-{6-[4-(trifluoromethoxy)phenyl][1,2,4]triazolo[4,3-a]pyridin-3-yl}benzoate]",82.7
5,"FC(F)(F)c1nnc2ccc(-c3ccc(OC(F)(F)c4ccccc4)cc3)cn12 [BHN-272, 6-{4-[difluoro(phenyl)methoxy]phenyl}-3-(trifluoromethyl)[1,2,4]triazolo[4,3-a]pyridine]",64.9
6,"N#CCOCC(F)(F)c1nnc2ccc(-c3ccc(OC(F)(F)F)cc3)cn12 [BHN-156, (2,2-difluoro-2-{6-[4-(trifluoromethoxy)phenyl][1,2,4]triazolo[4,3-a]pyridin-3-yl}ethoxy)acetonitrile]",22.3
7,"FC(F)(F)Oc1ccc(-c2ccc3nnc(C(F)(F)F)n3c2)c(Br)c1 [BHN-124, 6-[2-bromo-4-(trifluoromethoxy)phenyl]-3-(trifluoromethyl)[1,2,4]triazolo[4,3-a]pyridine]",82
8,"FC(F)(F)COc1ccc(-c2ccc3cnc(C(F)(F)F)n3c2)cn1 [BHN-179, 6-[6-(2,2,2-trifluoroethoxy)pyridin-3-yl]-3-(trifluoromethyl)imidazo[1,5-a]pyridine]",49.7
9,"OC1(COC(F)(F)c2nnc3ccc(-c4ccc(OC(F)(F)F)cc4)cn23)CCC1 [BHN-248, 1-[(difluoro{6-[4-(trifluoromethoxy)phenyl][1,2,4]triazolo[4,3-a]pyridin-3-yl}methoxy)methyl]cyclobutanol]",50.2
10,"OC(COCC(F)(F)c1nnc2ccc(-c3ccc(OC(F)(F)F)cc3)cn12)COc1ccccc1Cl (stereo not drawn) [BHN-267, 1-(2-chlorophenoxy)-3-(2,2-difluoro-2-{6-[4-(trifluoromethoxy)phenyl][1,2,4]triazolo[4,3-a]pyridin-3-yl}ethoxy)propan-2-ol]",26.5
11,"OCC(F)(F)c1nnc2ccc(-c3ccc(Oc4ccccc4)cc3)cn12 [BHN-111, 2,2-difluoro-2-[6-(4-phenoxyphenyl)[1,2,4]triazolo[4,3-a]pyridin-3-yl]ethanol]",29
12,"FC(F)(F)Oc1ccc(-c2ccc3nnc(C(F)(F)COCc4cccnc4)n3c2)cc1 [BHN-139, 3-[1,1-difluoro-2-(pyridin-3-ylmethoxy)ethyl]-6-[4-(trifluoromethoxy)phenyl][1,2,4]triazolo[4,3-a]pyridine]",15.4
13,"COCC(F)(F)c1nnc2ccc(C#Cc3ccc(F)cc3)cn12 [BHN-310, 3-(1,1-difluoro-2-methoxyethyl)-6-[(4-fluorophenyl)ethynyl][1,2,4]triazolo[4,3-a]pyridine]",21.7
14,"CC(C)c1nnc2ccc(-c3cc(F)c(Oc4ccccc4)c(F)c3)nn12 [BHN-201, 6-(3,5-difluoro-4-phenoxyphenyl)-3-(propan-2-yl)[1,2,4]triazolo[4,3-b]pyridazine]",29.7
15,"FC(F)(F)Oc1ccc(-c2ccc3nnc(C(F)(F)OCc4cn(Cc5ccccc5)nn4)n3c2)cc1 [BHN-297, 3-{[(1-benzyl-1H-1,2,3-triazol-4-yl)methoxy](difluoro)methyl}-6-[4-(trifluoromethoxy)phenyl][1,2,4]triazolo[4,3-a]pyridine]",63.4
16,"Cc1ccc(C)c(OCC(O)COCC(F)(F)c2nnc3ccc(-c4ccc(OC(F)(F)F)cc4)cn23)c1 (stereo not drawn) [BHN-274, 1-(2,2-difluoro-2-{6-[4-(trifluoromethoxy)phenyl][1,2,4]triazolo[4,3-a]pyridin-3-yl}ethoxy)-3-(2,5-dimethylphenoxy)propan-2-ol]",38.9
17,"FC(F)(F)COc1ccc(-c2ccc3nnc(C(F)(F)F)n3c2)nn1 [BHN-187, 6-[6-(2,2,2-trifluoroethoxy)pyridazin-3-yl]-3-(trifluoromethyl)[1,2,4]triazolo[4,3-a]pyridine]",15.2
18,"FC(F)(F)COc1ccc(-c2ccc3nnnn3c2)cn1 [BHN-219, 6-[6-(2,2,2-trifluoroethoxy)pyridin-3-yl]tetrazolo[1,5-a]pyridine]",36.9
19,"FC(F)(F)c1nnc2ccc(-c3ccc(Nc4ccc(Cl)cc4)cc3)cn12 [BHN-283, 4-chloro-N-{4-[3-(trifluoromethyl)[1,2,4]triazolo[4,3-a]pyridin-6-yl]phenyl}aniline]",27.2
20,"FC(F)(F)Oc1ccc(-c2ccc3nnc(C(F)(F)OCc4coc(-c5ccc(C(F)(F)F)cc5)n4)n3c2)cc1 [BHN-288, 3-[difluoro({2-[4-(trifluoromethyl)phenyl]-1,3-oxazol-4-yl}methoxy)methyl]-6-[4-(trifluoromethoxy)phenyl][1,2,4]triazolo[4,3-a]pyridine]",39.2
21,"CC(OC(F)(F)c1nnc2ccc(-c3ccc(OC(F)(F)F)cc3)cn12)c1ccc(Cl)cc1 (stereo not drawn) [BHN-231, 3-{[1-(4-chlorophenyl)ethoxy](difluoro)methyl}-6-[4-(trifluoromethoxy)phenyl][1,2,4]triazolo[4,3-a]pyridine]",62.9
22,"Fc1ccc(COCC(F)(F)c2nnc3ccc(-c4ccc(OC(F)(F)F)cc4)cn23)cc1F [BHN-190, 3-{2-[(3,4-difluorobenzyl)oxy]-1,1-difluoroethyl}-6-[4-(trifluoromethoxy)phenyl][1,2,4]triazolo[4,3-a]pyridine]",24.3
23,"COCc1c(-c2ccc(OC(F)(F)F)cc2)ccc2nnc(C(F)(F)F)n12 [BHN-277, 5-(methoxymethyl)-6-[4-(trifluoromethoxy)phenyl]-3-(trifluoromethyl)[1,2,4]triazolo[4,3-a]pyridine]",38

# Same assay, conditions: compound at 10 μM; HEK293 cells expressing hNav1.5; late INa generated with 10 μM Tefluthrin (or 50 nM ATX II); read-out: LateINa_10 uM (percent block of late INa)
row,SMILES,inhibition at 10 µM [%]
1,"CCOC(=O)c1ccc(-c2nnc3ccc(-c4ccc(OC(F)(F)F)cc4)cn23)cc1 [BHN-86, ethyl 4-{6-[4-(trifluoromethoxy)phenyl][1,2,4]triazolo[4,3-a]pyridin-3-yl}benzoate]",86.9
2,"CC(C)(C)c1nnc2ccc(-c3ccc(Oc4ccccc4)cc3)nn12 [BHN-35, 3-tert-butyl-6-(4-phenoxyphenyl)[1,2,4]triazolo[4,3-b]pyridazine]",68.6
3,"FC(F)(F)c1nnc2ccc(-c3cnc(C4CC4)nc3)cn12 [BHN-89, 6-(2-cyclopropylpyrimidin-5-yl)-3-(trifluoromethyl)[1,2,4]triazolo[4,3-a]pyridine]",20.5
4,"CC(C)(O)c1ccc(-c2ccc3nnc(C(F)(F)F)n3c2)cc1 [BHN-48, 2-{4-[3-(trifluoromethyl)[1,2,4]triazolo[4,3-a]pyridin-6-yl]phenyl}propan-2-ol]",18.9
5,"c1ccc(Oc2ccc(-c3ccc4nncn4n3)cc2)cc1 [BHN-22, 6-(4-phenoxyphenyl)[1,2,4]triazolo[4,3-b]pyridazine]",59
6,"Cn1cc(-c2nnc3ccc(-c4ccc(Oc5ccccc5)cc4)nn23)cn1 [BHN-43, 3-(1-methyl-1H-pyrazol-4-yl)-6-(4-phenoxyphenyl)[1,2,4]triazolo[4,3-b]pyridazine]",25.2
